Measured values as given in US20230002344A1, “NOVEL BENZOTHIOPHENE DERIVATIVES AND USE THEREOF FOR STIMULATING MITOCHONDRIAL TURNOVER” (NIBN, The National Institute For Biotechnology In The Negev …, priority 2019, published 2023).
Entries after “also recorded” stand apart in the source; their conditions may differ.

Legend:
INS1 cells [1] = test: Mitochondrial morphology (aspect ratio, circularity); assay type: cell-based; settings: 25 uM, 24 h
Method: INS1 cells were treated with SPB08007 (25 uM) or DMSO (0.1%) for 24 h. Mitochondria were stained with Mitotracker Green and TMRE (images represented in FIG. 10). MTG fluorescence was used to calculate Aspect Ratio (AR) (FIG. 16A) and circularity (FIG. 16B) of mitochondrial structures.

Mitochondrial complex I = test: Complex I activity assay; assay type: biochemical; settings: mitochondria from INS1 cells treated with 25 uM
Method: Complex I Activity assay. Mitochondrial complex I enzyme activity was measured using Abcam's complex I enzyme activity microplate assay Kit (ab109721) by following the oxidation of reduced nicotinamide adenine dinucleotide (NADH) to oxidized NAD+ and the simultaneous reduction of a dye which leads to increased absorbance at OD=450 nm.

INS1 cells [2] = test: Cell viability (XTT); assay type: cell-based; settings: 25 μM, 24 hours exposure
Method: Cell Viability. Viability was measured using an XTT kit (Biological Industries), as recommended by the manufacturer. 30,000 cells were seeded in a flat 96-well plate. To each well 100 μl of growth media was added. The cells were incubated in a CO2 incubator at 37° C. In most cases, cells can be used to assay proliferation after 24-96 hours. Each test included a blank containing complete medium without cells as a background control. To prepare a reaction solution sufficient for one plate (96 wells), 0.1 ml activation solution was added to 5 ml XTT reagent. 50 μl of the reaction solution was added to each well and the plate was incubated in an incubator for 2-24 hours. Following the incubation, the plate was shacked gently to evenly distribute the dye in the wells and the absorbance of the samples was measured against a background control with a spectrophotometer (ELISA reader) at a wavelength of 480 nm. To determine non-specific readings we used a wavelength of 650 nm which we subtracted from the 480 nm measurement. The average absorbance of the blank control wells was finally subtracted from that of the other wells.
For all the experiment concerning cell viability, a kit of XTT reagent was used (Biological Industries).

[3] = system: INS1 cells expressing MitoTimer; test: MitoTimer red/green ratio high-content screen and dose-response; assay type: cell-based
Method: INS1 cells were stably transduced with MitoTimer by lentiviral infection and were tested using known modulators of autophagy. The paradigm used was based on previous reports showing that the shift in emission from green to red occurs within 18 hours. Assuming that this shift is constant, changes in red FI occurring during this frame of time can result from an effect on MitoTimer clearance and not from an effect on synthesis. The paradigm employed consisted therefore of a treatment lasting 18 hours followed by imaging.
Stimulators of mitochondrial clearance were defined as those inducing a red-to-green FI below −3 and a red intensity below −5.1. Suppressors of mitochondrial clearance were defined as those inducing a red-to-green FI above 10.34 and a red intensity above 4.5. […] Compounds displaying high green FI (above 15) were also discarded to prevent the inclusion of autofluorescent molecules. Only molecules that filled the above criteria in both duplicates were further tested.
The screen was performed during 8 sessions in Weizmann institute. All compounds were tested at a concentration of 10 μM, in duplicates. The images were processed to reduce background (using Metamorph software) and then analyzed in GeneData software.
We subjected those compounds to a dose-response assay (concentrations: 10, 3.33, 1.11, 0.37 and 0.12 μM).
MitoTimer expressing INS1 cells generation, Cell Culture and treatments. MitoTimer-reporter was cloned into the pHAGE2 lenti-vector under the full-length EF1-alpha promoter to obtain constitutive expression. For the HCS, INS1 cells were infected with lentivirus carrying mitochondrial complex-I-targeted-MitoTimer plasmid. Highly expressing cells were selected by high speed fluorescence activated cell sorter (SY3200 cell sorter, Synergy, iCyt) and kept by the addition of puromycin (1 mg . L-1) in the cell media. Cells were thawed before each experiment, and MitoTimer expression checked through fluorescence.
High-Content Screening. […] HCS assay was developed at the Drug Discovery Unit, INCPM, Weizmann Institute of Science. […] Briefly, cells were treated with 10 uM of each compounds for 18 h and imaged in two wavelengths (FITC—excitation […], emission 520/35 nm and TRITC—excitation 543/22 nm, emission 593/40 nm) at ImageXpress Micro High-Content Imaging System/Molecular Devices. Rapamycin 100 nM was used as a control. In each cell plate, the neutral (DMSO) and positive control (Rapamycin) were repeated in 16 replicates while the treatments were performed in duplicates. Each plate was replicated and only hits found in the 2 independent plates were considered. Two fields of each well were analyzed, what normally allowed the analysis of 20-40 cells per condition. MitoTimer red/green ratio for every cell was done in MetaXpress. […] The compounds which affected MitoTimer red/green ratio in a dose response, ranging from […], were classified as a hit.
Individual cells were identified using the red channel, and red and green MitoTimer fluorescence were analyzed and ratio determined per cell.

INS1 cells [4] = test: Western blot against LC3 (autophagic flux); assay type: cell-based
Method: The Z-score depicts the standard deviation from the neutral control (DMSO). In FIG. 3C: Mitochondrial mass in INS1 cells treated for 18 hours with either DMSO (control), Urolithin A (25 μM), SPB08007 (“SBP”) (25 μM) or MWP00839 (“MWP”) (11.5 μM) and then stained with Mitotracker green (200 nM). In FIG. 3D: SPB08007 and MWP00839 increase the number of mitochondria inside autolysosomes. INS1 cells expressing mCherry-GFP were exposed to SPB08007, MWP00839, and DMSO for 8 hours and then subjected to confocal microscopy. The area of red fluorescence in the taken images was determined. N=3+/−SEM pANOVA<0.05. FIG. 3E provides representative images. […] FIG. 3F provides the Western blot against LC3 in INS1 cells treated with the compounds in presence or absence of bafilomycin (+b) for the last 2 hours.

EC50 ([3]; Rattus norvegicus, INS1 cells, 18 h, dose-response, read-out: qEC50): 49 µM
SMILES: CC(=O)N/C(=C\c1sc2ccccc2c1C)C(=O)O [SPB08007]
mitochondrial morphology (INS1 cells [1]): does not alter
mitochondrial Complex I activity (Mitochondrial complex I): two-and-a-half-fold increase
viability (XTT) (INS1 cells [2]): did not affect viability; also recorded: comparable to DMSO control
red/green MitoTimer ratio ([3]; 10 uM, INS1 cells): reduced
MitoTimer green readout ([3]; 50 uM dose): increase
maximum reduction on the ratio index (MitoTimer red/green) ([3]; 50 uM dose, 18 h, vs DMSO): 40%
optimal dose for stimulating a reduction in red-to-green FI ([3]; INS1 cells, 18 h): 25 µM
activity (MitoTimer red-to-green FI, Z-score vs DMSO) ([3]; INS1 cells, 18 h, dose-response): −3.018
autophagy (LC3II, with or without bafilomycin) (INS1 cells [4]): increase in autophagy
